Results taken from doi:10.1101/2024.12.25.630315 (bioRxiv, 2024).

Key:
Nectin-4 [1] = target: T1, Nectin-4 (Homo sapiens, UniProt Q96NY8); experiment: In vivo Nectin-4 engagement by EV, SCaBER tumors (ex vivo biodistribution of [^68Ga]AJ647); parameters: species or system mouse; conditions: NSG mice, single i.v. dose of EV (15 mg/kg in text, 20 mpk in legend/methods) 24 hours before tracer, ex vivo biodistribution 60 min, n=5, P < 0.001
T1 construct: host or cells: HT1376, SCaBER, T24, RT112, UC9, UC14 urothelial carcinoma cells; HT1376 xenografts in NSG mice
T1 sequence (Q96NY8 32-510): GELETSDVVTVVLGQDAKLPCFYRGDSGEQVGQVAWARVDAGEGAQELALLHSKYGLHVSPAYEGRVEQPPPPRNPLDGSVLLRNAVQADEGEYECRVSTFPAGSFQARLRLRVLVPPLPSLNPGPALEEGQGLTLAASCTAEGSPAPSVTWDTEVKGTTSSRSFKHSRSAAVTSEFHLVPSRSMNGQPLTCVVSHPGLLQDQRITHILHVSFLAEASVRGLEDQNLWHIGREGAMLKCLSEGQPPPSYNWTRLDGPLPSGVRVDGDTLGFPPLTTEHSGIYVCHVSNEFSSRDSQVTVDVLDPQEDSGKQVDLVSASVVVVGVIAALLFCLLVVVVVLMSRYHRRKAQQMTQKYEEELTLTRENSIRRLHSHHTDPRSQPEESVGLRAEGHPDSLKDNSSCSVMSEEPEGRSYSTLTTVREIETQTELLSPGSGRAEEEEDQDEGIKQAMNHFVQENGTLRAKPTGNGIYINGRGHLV
Description: (§1) To validate imaging studies, ex vivo biodistribution studies were conducted in mice with tumors of size 100–200 mm^3. Mice received ~50 μCi (1.85 MBq) of [^68Ga]AJ647 in […] of 5% ethanol in saline intravenously and mice were sacrificed at 5–180 min after [^68Ga]AJ647 injection for pharmacokinetic evaluation (n=4 per timepoint). In all other studies, 60 min time-point was chosen. Selected tissues (Blood, Skin, Muscle, Bone, Salivary glands, Tumor, Lungs, Heart, Liver, Pancreas, Spleen, Kidneys, Bladder, Testicles) were collected, weighed, counted, and their %IA/g values calculated as described previously (PMID: 37793856). For EV pharmacodynamics studies, fewer organs were harvested to accommodate more number of mice.
(§2) Male NSG mice were implanted subcutaneously with HT1376 and SCaBER cells (4 million each) on the right and left rostral end, respectively. On day 25 after cell inoculation (average tumor volume=200±35 mm^3), mice were randomized and treated with a single dose of either saline or 20 mpk EV ADC injected intravenously (volume not exceeding 300 μL) or with 200 μL saline (n=7/group). 24 hours following the EV dose, [^68Ga]AJ647 PET scans (n=2/group) were acquired and ex vivo biodistribution (n=5/group) was performed using the protocols mentioned above.

HT1376 tumors = experiment: EV therapy response and PET target engagement, HT1376 xenografts; assay type: in vivo, mouse
Description: Mice with tumor volume of ~100-150 mm^3 were injected with ~[…] (7.4 MBq) of [^68Ga]AJ647 in […] of 5% ethanol in saline intravenously and anesthetized under 2.5% isoflurane. PET-CT images were acquired at 60 minutes after radiotracer injection at 5 min/bed in an ARGUS small-animal PET/CT scanner (Sedecal, Madrid, Spain) as described (n=3 unless otherwise noted). PET-MR images were acquired on a simultaneous 7T Bruker PET-MR scanner. Dynamic imaging was conducted to evaluate pharmacokinetics of [^68Ga]AJ647. [^68Ga]AJ647 was injected (with help of catheter) after mice was anesthetized under 2.5% isoflurane on the equipment bed. All PET data were reconstructed using the two-dimensional ordered subsets-expectation maximization algorithm (2D-OSEM) and corrected for radioactive decay and dead time. The SUV values were calculated by finding percent of injected activity (%IA) based on a calibration factor obtained from a known radioactive quantity, then normalizing by mice weight. […] For change in accessible Nectin-4 levels following EV treatment, ΔSUV was calculated by subtracting baseline (pre-treatment) uptake from post-therapy uptake of [^68Ga]AJ647. Target engagement was quantified by normalizing this change by initial SUV in same subject controls. […] Mice body weight and tumor measurements were recorded until saline group tumors reached 1500 mm^3 average size. […] Briefly, the percentage change in volume relative to baseline: % tumor volume change (ΔVolt) = 100% × ((Vt -[…]). BestResponse was the lowest ΔVolt for t ≥ 10 days. For each time t, the average ΔVolt from t = 0 to t was calculated, with the BestAvgResponse defined as the lowest average ΔVolt for t ≥ 10 days. Modified response criteria (mRECIST), adapted from RECIST21, were as follows: mCR (BestResponse < -95%, BestAvgResponse < -40%), mPR (BestResponse < -50%, BestAvgResponse < -20%), mSD (BestResponse < 35%, BestAvgResponse < 30%), and mPD (all others). We defined mPD as non-responders (0 response) and stable disease or better as responders (1 response). […]

Nectin-4 [2] = target: T1, Nectin-4; experiment: In vivo Nectin-4 engagement by EV, HT1376 tumors (ex vivo biodistribution of [^68Ga]AJ647); parameters: species or system mouse; conditions: NSG mice, single i.v. dose of EV (15 mg/kg in text, 20 mpk in legend/methods) 24 hours before tracer, ex vivo biodistribution 60 min, n=5, P < 0.0001
Description: as §1, §2

## enfortumab vedotin [EV]
Nectin-4 [1]
  reduction in [^68Ga]AJ647 uptake in EV-treated tumors compared to controls: 72%
HT1376 tumors; EV 6 and 15 mg/kg groups, day 6 PET
  share of mice with less than 50% target engagement: 50%
HT1376 tumors; EV-treated mice with higher target engagement, irrespective of dose
  responders (mRECIST, stable disease or better): 7/8
HT1376 tumors; EV-treated mice with less than 30% target engagement
  responders (mRECIST, stable disease or better): 0/12
Nectin-4 [2]
  reduction in [^68Ga]AJ647 uptake in EV-treated tumors compared to controls: 84%
